From patent publication US8835432B2, “Heterocyclic compounds and their uses” (Amgen Inc., priority 2012, dated 2014)

Tests used:
Human B cells = Human B cells proliferation stimulated by anti-IgM; assay type: cell-based; conditions: Hu B Cell anti-IgM, note under the cell, read-out: on target anti-IgM (Hu B Cell anti-IgM)
Experimental: Human B Cells Proliferation Stimulate by Anti-IgM
Isolate PBMCs from Leukopac or from human fresh blood. Isolate human B cells by using Miltenyi protocol and B cell isolation kit II.-human B cells were Purified by using AutoMacs.column.
Activation of Human B Cells
Use 96 well Flat bottom plate, plate 50000/well purified B cells in B cell proliferation medium (DMEM+5% FCS, 10 mM Hepes, 50 μM 2-mercaptoethanol); 150 μL medium contain 250 ng/mL CD40L-LZ recombinant protein (Amgen) and 2 μg/mL anti-Human IgM antibody (Jackson ImmunoReseach Lab.#109-006-129), mixed with 50 μL B cell medium containing PI3K inhibitors and incubate 72 h at 37° C. incubator. After 72 h, pulse labeling B cells with 0.5-1 uCi/well ^3H thymidine for overnight ˜18 h, and harvest cell using TOM harvester.

PI3Kb [1] = molecular target: T1, PI3Kb (Homo sapiens, UniProt P42338); assay: In vitro enzyme assay, PI3K beta; assay type: biochemical; design: Full length p110 subunits of PI3k α, β and δ, N-terminally labeled with polyHis tag; polyHis (N); made in house; host or cells: Sf9 insect cells (baculovirus); conditions: read-out: P13K b IC50
T1 sequence (P42338 whole entry, the tested form may be a part): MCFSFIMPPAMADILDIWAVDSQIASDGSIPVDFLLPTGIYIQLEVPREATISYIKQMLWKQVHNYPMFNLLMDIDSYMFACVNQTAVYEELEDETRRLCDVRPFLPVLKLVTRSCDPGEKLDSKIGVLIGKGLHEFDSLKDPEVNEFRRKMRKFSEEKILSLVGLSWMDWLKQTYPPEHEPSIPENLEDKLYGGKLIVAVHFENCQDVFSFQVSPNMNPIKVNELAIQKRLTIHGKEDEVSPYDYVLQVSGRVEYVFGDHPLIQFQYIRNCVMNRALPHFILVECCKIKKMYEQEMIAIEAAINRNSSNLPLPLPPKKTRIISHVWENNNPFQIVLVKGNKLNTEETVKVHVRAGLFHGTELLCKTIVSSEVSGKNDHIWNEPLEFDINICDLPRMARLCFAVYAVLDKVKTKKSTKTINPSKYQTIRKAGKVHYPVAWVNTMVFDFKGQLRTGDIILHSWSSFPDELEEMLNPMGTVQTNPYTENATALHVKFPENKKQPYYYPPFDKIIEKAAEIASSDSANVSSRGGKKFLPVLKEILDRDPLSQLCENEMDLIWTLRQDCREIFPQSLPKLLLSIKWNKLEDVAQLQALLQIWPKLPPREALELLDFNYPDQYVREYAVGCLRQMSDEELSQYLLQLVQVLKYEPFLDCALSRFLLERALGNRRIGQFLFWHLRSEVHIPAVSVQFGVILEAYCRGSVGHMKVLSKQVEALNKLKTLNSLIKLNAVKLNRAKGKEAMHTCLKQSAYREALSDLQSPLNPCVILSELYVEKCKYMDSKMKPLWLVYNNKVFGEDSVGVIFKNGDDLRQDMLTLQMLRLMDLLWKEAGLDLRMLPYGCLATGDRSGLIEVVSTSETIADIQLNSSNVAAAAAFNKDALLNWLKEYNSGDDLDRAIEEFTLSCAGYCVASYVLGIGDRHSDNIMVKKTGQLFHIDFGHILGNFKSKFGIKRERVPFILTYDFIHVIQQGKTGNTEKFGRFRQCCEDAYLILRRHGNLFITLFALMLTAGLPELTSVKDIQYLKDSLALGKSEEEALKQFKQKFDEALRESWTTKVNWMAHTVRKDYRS
T1 sequence (P27986 whole entry partner, the tested form may be a part): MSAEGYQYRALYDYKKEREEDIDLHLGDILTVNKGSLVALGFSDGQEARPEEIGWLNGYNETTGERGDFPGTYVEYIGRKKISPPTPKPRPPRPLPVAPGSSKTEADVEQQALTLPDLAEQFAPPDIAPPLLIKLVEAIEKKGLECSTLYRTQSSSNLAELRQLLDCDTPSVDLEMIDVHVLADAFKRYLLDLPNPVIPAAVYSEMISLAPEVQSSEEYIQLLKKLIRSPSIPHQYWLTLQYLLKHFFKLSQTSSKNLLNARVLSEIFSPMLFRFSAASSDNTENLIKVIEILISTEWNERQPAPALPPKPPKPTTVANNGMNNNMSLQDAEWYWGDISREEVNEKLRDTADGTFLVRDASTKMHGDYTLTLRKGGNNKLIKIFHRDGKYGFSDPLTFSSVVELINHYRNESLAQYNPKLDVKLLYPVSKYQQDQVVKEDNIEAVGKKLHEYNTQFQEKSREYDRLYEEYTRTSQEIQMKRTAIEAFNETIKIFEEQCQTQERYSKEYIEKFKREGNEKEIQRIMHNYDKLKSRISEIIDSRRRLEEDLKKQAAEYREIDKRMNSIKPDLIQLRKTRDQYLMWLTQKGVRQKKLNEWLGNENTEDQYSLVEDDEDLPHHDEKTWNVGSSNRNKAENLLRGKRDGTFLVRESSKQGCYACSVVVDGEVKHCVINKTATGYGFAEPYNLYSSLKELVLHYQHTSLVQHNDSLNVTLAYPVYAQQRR
Experimental: (§1) Full length p110 subunits of PI3k α, β and δ, N-terminally labeled with polyHis tag, were coexpressed with p85 with Baculo virus expression vectors in sf9 insect cells. P110/p85 heterodimers were purified by sequential Ni-NTA, Q-HP, Superdex-100 chromatography. Purified α, β and δ isozymes were stored at −20° C. in 20 mM Tris, pH 8, 0.2M NaCl, 50% glycerol, 5 mM DTT, 2 mM Na cholate. Truncated PI3Kγ, residues 114-1102, N-terminally labeled with polyHis tag, was expressed with Baculo virus in Hi5 insect cells. The γ isozyme was purified by sequential Ni-NTA, Superdex-200, Q-HP chromatography. The γ isozyme was stored frozen at −80° C. in NaH2PO4, pH 8, 0.2M NaCl, 1% ethylene glycol, 2 mM β-mercaptoethanol.
(§2) Assays were performed in 25 μL with the above final concentrations of components in white polyproplyene plates (Costar 3355). Phospatidyl inositol phosphoacceptor, PtdIns(4,5)P2 P4508, was from Echelon Biosciences. The ATPase activity of the alpha and gamma isozymes was not greatly stimulated by PtdIns(4,5)P2 under these conditions and was therefore omitted from the assay of these isozymes. Test compounds were dissolved in dimethyl sulfoxide and diluted with three-fold serial dilutions. The compound in DMSO (1 μL) was added per test well, and the inhibition relative to reactions containing no compound, with and without enzyme was determined After assay incubation at rt, the reaction was stopped and residual ATP determined by addition of an equal volume of a commercial ATP bioluminescence kit (Perkin Elmer EasyLite) according to the manufacturer's instructions, and detected using a AnalystGT luminometer.

PI3Kb [2] = molecular target: T1, PI3Kb; assay: Forkhead translocation assay (MDA MB468 Forkhead-DiversaGFP cells); assay type: cell-based; design: endogenous in cells; host or cells: MDA MB468 (Forkhead-DiversaGFP) cells; conditions: first value of the cell; MDA468 forkhead; read-out: PI3KbMDA468 FH
Experimental: (§3) GFP Assays for Detecting Inhibition of Class Ia and Class III PI3K
Forkhead (FKHRL1) is a substrate for AKT1. It is cytoplasmic when phosphorylated by AKT (survival/growth). Inhibition of AKT (stasis/apoptosis)-forkhead translocation to the nucleus
Forkhead Translocation Assay (MDA MB468 Forkhead-DiversaGFP Cells)
Treat cells with compound in growth medium 1 h. Fix and image.

PI3Kg = molecular target: T2, PI3Kg (Homo sapiens, UniProt P48736); assay: In vitro enzyme assay, PI3K gamma; assay type: biochemical
T2 construct: Truncated PI3Kγ, residues 114-1102, N-terminally labeled with polyHis tag; polyHis (N); made in house; host or cells: Hi5 insect cells (baculovirus)
T2 sequence (P48736 114-1102): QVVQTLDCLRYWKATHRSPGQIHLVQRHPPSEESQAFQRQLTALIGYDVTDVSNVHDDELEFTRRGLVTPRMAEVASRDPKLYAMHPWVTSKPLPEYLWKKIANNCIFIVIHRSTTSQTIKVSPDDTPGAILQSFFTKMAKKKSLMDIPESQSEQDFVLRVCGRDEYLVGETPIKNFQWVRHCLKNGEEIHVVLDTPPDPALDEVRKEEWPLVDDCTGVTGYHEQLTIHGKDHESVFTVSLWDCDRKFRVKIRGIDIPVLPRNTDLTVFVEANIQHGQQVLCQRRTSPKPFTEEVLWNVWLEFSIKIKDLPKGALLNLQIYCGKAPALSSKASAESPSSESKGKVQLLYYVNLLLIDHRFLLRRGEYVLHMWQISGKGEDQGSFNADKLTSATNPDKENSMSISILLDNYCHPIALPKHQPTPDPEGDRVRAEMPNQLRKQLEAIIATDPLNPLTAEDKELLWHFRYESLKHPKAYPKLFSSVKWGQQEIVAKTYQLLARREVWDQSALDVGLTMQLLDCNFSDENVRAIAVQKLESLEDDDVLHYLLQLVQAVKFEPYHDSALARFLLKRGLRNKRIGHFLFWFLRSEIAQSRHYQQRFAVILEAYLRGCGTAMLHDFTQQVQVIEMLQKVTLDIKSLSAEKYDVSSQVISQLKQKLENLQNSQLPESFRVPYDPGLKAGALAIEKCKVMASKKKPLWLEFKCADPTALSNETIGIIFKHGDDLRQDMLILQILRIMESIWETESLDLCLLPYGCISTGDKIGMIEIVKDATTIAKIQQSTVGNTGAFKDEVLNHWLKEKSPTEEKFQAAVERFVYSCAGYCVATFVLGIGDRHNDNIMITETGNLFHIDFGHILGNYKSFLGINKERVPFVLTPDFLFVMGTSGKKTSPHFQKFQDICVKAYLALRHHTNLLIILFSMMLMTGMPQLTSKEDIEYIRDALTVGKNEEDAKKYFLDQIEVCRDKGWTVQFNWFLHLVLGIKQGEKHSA
Experimental: as §1, §2

PI3KIII = molecular target: T3, PI3KIII (Homo sapiens, UniProt Q8NEB9); assay: Class III PI(3)P assay (U20S EGFP-2XFYVE cells); assay type: cell-based
T3 construct: host or cells: U2OS EGFP-2XFYVE cells
T3 sequence (Q8NEB9 whole entry): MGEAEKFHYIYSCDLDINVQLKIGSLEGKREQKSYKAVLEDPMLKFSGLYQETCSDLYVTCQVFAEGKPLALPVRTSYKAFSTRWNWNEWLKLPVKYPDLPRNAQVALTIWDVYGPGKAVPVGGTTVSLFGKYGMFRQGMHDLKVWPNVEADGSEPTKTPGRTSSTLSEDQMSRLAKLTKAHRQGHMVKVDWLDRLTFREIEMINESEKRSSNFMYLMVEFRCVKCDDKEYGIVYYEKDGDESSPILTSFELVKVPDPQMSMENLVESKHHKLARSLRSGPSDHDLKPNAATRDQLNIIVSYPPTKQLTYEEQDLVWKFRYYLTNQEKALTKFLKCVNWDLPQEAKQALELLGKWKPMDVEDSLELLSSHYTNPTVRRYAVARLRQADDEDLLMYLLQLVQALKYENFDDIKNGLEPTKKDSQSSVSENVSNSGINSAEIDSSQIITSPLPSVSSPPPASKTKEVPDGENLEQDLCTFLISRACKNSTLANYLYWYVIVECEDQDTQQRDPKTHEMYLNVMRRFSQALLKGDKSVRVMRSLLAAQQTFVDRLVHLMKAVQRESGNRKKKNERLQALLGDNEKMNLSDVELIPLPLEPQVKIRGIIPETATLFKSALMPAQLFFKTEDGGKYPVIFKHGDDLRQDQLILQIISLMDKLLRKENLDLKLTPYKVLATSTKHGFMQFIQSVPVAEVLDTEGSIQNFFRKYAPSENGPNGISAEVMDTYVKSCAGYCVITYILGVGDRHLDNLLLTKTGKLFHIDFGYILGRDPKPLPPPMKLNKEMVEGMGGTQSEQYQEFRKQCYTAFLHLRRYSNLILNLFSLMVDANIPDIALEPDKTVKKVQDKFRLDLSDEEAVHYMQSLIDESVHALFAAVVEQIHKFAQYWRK
Experimental: as §3
FYVE domains bind to PI(3)P. the majority is generated by constitutive action of PI3K Class III
Class III PI(3)P assay (U20S EGFP-2XFYVE Cells/GE Healthcare)
Wash cells with assay buffer. Treat with compounds in assay buffer 1 h. Fix and image.
Control for all 3 assays is […] Wortmannin:
PI(3)P depleted from endosomes

PI3K d = molecular target: T4, PI3K d (Homo sapiens, UniProt O00329); assay: In vitro enzyme assay, PI3K delta; assay type: biochemical
T4 construct: Full length p110 subunits of PI3k α, β and δ, N-terminally labeled with polyHis tag; polyHis (N); made in house; host or cells: Sf9 insect cells (baculovirus)
Experimental: as §1, §2

PI3K b = assay: In vitro enzyme assay, PI3K beta; assay type: biochemical; conditions: ratio of beta to delta IC50
Experimental: as §1, §2

PI3Ka = molecular target: T5, PI3Ka (Homo sapiens, UniProt P42336); assay: In vitro enzyme assay, PI3K alpha; assay type: biochemical
T5 construct: Full length p110 subunits of PI3k α, β and δ, N-terminally labeled with polyHis tag; polyHis (N); made in house; host or cells: Sf9 insect cells (baculovirus)
T5 sequence (P42336 whole entry): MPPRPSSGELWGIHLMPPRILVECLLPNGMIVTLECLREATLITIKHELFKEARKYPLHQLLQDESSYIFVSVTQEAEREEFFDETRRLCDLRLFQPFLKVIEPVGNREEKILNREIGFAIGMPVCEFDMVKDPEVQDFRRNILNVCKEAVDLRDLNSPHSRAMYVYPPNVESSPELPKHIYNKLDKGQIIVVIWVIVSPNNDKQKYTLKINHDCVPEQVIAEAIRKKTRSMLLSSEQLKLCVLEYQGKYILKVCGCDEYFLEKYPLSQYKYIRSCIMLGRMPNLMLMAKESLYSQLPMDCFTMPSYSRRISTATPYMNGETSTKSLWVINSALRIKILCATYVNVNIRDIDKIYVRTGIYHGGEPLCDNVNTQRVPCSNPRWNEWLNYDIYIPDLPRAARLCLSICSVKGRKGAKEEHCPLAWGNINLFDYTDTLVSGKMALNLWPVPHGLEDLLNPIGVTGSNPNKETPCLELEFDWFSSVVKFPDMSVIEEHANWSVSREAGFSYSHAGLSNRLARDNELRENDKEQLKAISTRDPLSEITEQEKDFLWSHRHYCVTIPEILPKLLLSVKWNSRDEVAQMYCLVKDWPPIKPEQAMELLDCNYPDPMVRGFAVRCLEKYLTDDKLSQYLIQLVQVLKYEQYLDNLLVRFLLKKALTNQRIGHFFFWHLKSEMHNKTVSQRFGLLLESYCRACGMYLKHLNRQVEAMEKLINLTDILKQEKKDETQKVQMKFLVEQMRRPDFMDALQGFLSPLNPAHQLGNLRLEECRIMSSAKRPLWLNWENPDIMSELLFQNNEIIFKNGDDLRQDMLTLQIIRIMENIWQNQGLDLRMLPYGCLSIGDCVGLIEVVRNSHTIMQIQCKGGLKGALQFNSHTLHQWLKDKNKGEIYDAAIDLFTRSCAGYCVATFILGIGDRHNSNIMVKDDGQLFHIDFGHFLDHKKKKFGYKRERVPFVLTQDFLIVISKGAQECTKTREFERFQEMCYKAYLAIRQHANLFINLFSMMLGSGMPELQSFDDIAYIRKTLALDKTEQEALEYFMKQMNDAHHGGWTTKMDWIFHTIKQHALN
T5 sequence (P27986 whole entry partner): as the sequence (P27986 whole entry partner, the tested form may be a part) above
Experimental: as §1, §2

- IC50 (PI3Kb [1]): 2490 nM
- IC50 (PI3Kb [2]): > 10 µM
- IC50 (PI3Kg): 3.9 µM
- PI3K: g/d (PI3Kg; ratio of gamma to delta IC50): 333
- IC50 (PI3KIII): > 10 µM
- IC50 (PI3K d): 11.7 nM
- PI3K: b/d (PI3K b): 213
- PI3Ka IC50 (PI3Ka): 12.7000 µM
- PI3K: a/d (PI3Ka; ratio of alpha to delta IC50): 1085
SMILES: C[C@H](Nc1ncnc(N)c1C#N)c1nc2ccc(F)cc2nc1-c1ccccn1 [Example 7, (S)-4-Amino-6-((1-(6-fluoro-3-(pyridin-2-yl)quinoxalin-2-yl)ethyl)amino)-pyrimidine-5-carbonitrile]
- IC50 (Human B cells): 10.4 nM
